Laboratory results: publication PMC12562324, “Surfactin Structural Variants Differentially Modulate Plant Immune Responses” (Biomolecules, 2025)

Assays:
BGLU42 = assay: Coumarin pathway reporter line pBGLU42:GFP-GUS; format: cell-based, Arabidopsis thaliana; details: 10 µM Srf, 20 min post treatment, vs mock; n = 12 from three independent experiments; p < 0.05; Figure 6B
Method: Seedlings of the Arabidopsis thaliana reporter lines pMYB72:GFP-GUS and pBGLU42:GFP-GUS were germinated and cultivated for seven days under the aforementioned conditions. Uniform plantlets were then transferred to 96-well optical bottom black microplates (Greiner 96 µClear, Thermo Fisher Scientific, Hampton, VA, USA). Each well contained 150 µL of the hydroponic solution. Following transfer, the microplates were sealed and incubated in a growth chamber under controlled conditions (22 °C with a 12 h photoperiod). On the fifth day of this incubation, the plates were treated by adding 150 µL of either the CLP solution or a mock control to each well. Fluorescence measurements were subsequently acquired using a Spark microplate reader and configured with an excitation wavelength of 485 nm and an emission wavelength of 530 nm. Data were collected with nine measurement points acquired per well to ensure robustness.

root tissues = details: previous results; cited from earlier work
Text: Early immune responses associated with PTI include the rapid accumulation of extracellular ROS in the apoplast, generated mainly by the plasma membrane-located NADPH oxidase RBOHD or by cell wall peroxidases. Cytoplasmic hydrogen peroxide ([ROS]intra) production also emerges as an early defense response and could originate from various organelles, as reported for ETI, or in response to abiotic stresses or other small microbial compounds [9, 36, 37].

Botrytis cinerea = assay: ISR against B. cinerea in myb72-2 knockout mutant; format: in vivo; details: 10 µM Srf or mock (0.1% EtOH) before B. cinerea infection; n = 30 from two independent experiments; Figure 6C
Method: Plants were grown for 4 weeks in hydroponic conditions in Araponics systems containing a nutrient solution (0.25% (v/v) FLORAMICRO®, 0.25% (v/v) FLORABLOOM®, 0.25% (v/v) FLORAGRO®; General Hydroponics®, in volume ratio 1:1:1, as recommended by the manufacturer), with a photoperiod of 12 h and a temperature of 22 °C. Plants were then transferred into 10 mL vials filled with fresh nutrient solution and treated at the root level with CLPs or ethanol (mock treatment) to obtain final concentrations of 10 µM and 0.1%, respectively. After incubation for 24 h, plants were inoculated with Botrytis cinerea (Helotiales: Sclerotiniaceae) as the conidia solution. Spores were collected from B. cinerea grown on PDA plates for 4 weeks using a solution composed of 1.75 g/L KH2PO4; 0.74 g/L MgSO4; 4 g/L glucose, and 0.02% (v/v) Tween 20. After spore collection, the concentration was adjusted to 5 × 10^5 spores per mL, and spores were incubated at 30 °C for eight hours. Inoculation was conducted by inoculating a drop of 3 µL of conidia solution onto seven leaves per plant and fifteen plants per treatment. The number of spreading lesions was evaluated 96 h post infection.

[1] = system: Arabidopsis thaliana nia1nia2 double mutant roots; assay: Srf-induced NO in nitrate reductase double mutant roots; format: cell-based; details: fluorescence 40 min after Srf treatment, compared with Col-0; n = 12 from three independent experiments; Figure 3D
Method: For the detection of intracellular NO, roots were processed as described above and 200 µL sterile water was replaced by 200 µL 5 μM DAF-DA in a buffered solution (10 mM Tris/HCl, pH = 7.4). Roots were incubated at room temperature for 1 h in the absence of light and then washed 3 times with Tris/HCl (10 mM, pH = 7.4). The fluorescence emitted by DAF-DA was detected by excitation at 495 nm and emission at 515 nm. Experiments where NO was measured after pretreatment with the calcium channel blocker or calcium chelator included an additional step where LaCl3 (10 mM; Merck Chemicals SA, Hoeilaart, Belgium) or EGTA (1 mM; Merck Chemicals SA, Hoeilaart, Belgium) was added three minutes before treatments. Data were processed as described above for ROS. For NO measurements in protoplasts, the suspension was incubated in the same conditions before being distributed (50 µL) in microplate wells and treated with the CLPs at a 10 µM final concentration or with 0.1% DMSO as a mock.

surfactin [Srf]
BGLU42 expression in roots of reporter line (GFP fluorescence) (BGLU42): significant upregulation
Burst in extracellular ROS in root tissues (root tissues): not a burst in extracellular ROS
[ROS]intra production in root tissues (root tissues): triggers [ROS]intra production
ISR elicitor potential in myb72-2 knockout mutant compared to wild-type Col-0 (Botrytis cinerea): fully conserved
NO production in nia1nia2 double mutant roots [1]: fully conserved induction of NO production
